Assay results from patent publication US20190290685A1, “COMPOSITIONS AND ASSOCIATED METHODS OF MESOPOROUS NANOPARTICLES COMPRISING PLATINUM-ACRIDINE MOLECULES” (Wake Forest University, priority 2016, published 2019).
“Also recorded” adds a separate entry of the source.

Tests used:
BxPC3 cells = assay: Flow cytometry cell cycle analysis; format: cell-based, human; conditions: BxPC3, 48 h, micromolar-to-submicromolar concentrations; dinitrate salt
Protocol: BxPC3 cells were treated with P1A1@MSNLP-COOH-LIP10, P1A1, or MSNLP-COOH-LIP10 for 48 h at the indicated concentrations. Cells were gently trypsinized, washed in PBS, fixed in ice-cold EtOH:PBS (1:1) at equivalent cell concentrations, and stored at −20° C. Cells were washed with PBS, stained using FxCycle PI/RNase staining solution (Molecular Probes, Eugene, Oreg.) and assessed by flow cytometry using an Accuri C6 (BD Biosciences, San Jose, Calif.). Data was analyzed using Modfit software v3.3.

[1] = tested on: BxPC3 pancreatic cancer cells; assay: Confocal fluorescence microscopy, uptake and subcellular distribution; format: cell-based, human; conditions: BxPC3, 5 μM P1A1 or equivalent, 1 h and 12 h
Protocol: BxPC3 cells were seeded onto chamber slides (Nunc, Rochester, N.Y.) and allowed to attach for 48 h. Cells were then treated with 5 μM P1A1, P1A1@MSNLP-COOH-LIP10 at an equivalent concentration of drug, or vehicle. The medium was aspirated and cells were co-stained by incubating with 75 nM Lysotracker Red in complete medium for 1 h. Cells were washed 3× with PBS and fixed in 4% formaldehyde/PBS for 15 min. After another three PBS washes, cover slips were mounted onto 4-well chamber slides using vectashield HardSet mounting medium (Vector Labs, Burlingame, Calif.) and stored at 4° C. until ready to use. Images were collected using a Zeiss LSM 710 confocal microscope (Carl Zeiss MicroImaging, Thornwood, N.Y.) using a 63× (PLAN Oil APO, 1.4 NA) objective lens. All image channels were acquired in a sequential mode to minimize excitation cross talk and emission bleed-through. […] For comparative fluorescence intensity analysis, great care was taken to equalize excitation power, pinhole settings, PMT gain, and offset values across and within imaging sessions for each respective channel. […] Where necessary, post-acquisition contrast adjustments were applied to the entire image, and processing was identical in all fluorescence channels. […]

With “[PtCl(en)(N-[acridin-9-ylaminoethyl]-N-methylpropionamidine)] dinitrate salt [Compound P1A1]” as the substance, how does the “effect on cell cycle distribution” value (BxPC3 cells) read?
Its value is “robust S phase arrest; also recorded: sub-G1 population at the highest dose”.

And the “uptake and subcellular distribution” value [1]?
Its value is “accumulates rapidly (about 1 h) in cells to produce blue fluorescence associated with the entire cytoplasm and, to a lesser extent, the nuclear region”.
